US7491794B2, “Macrocyclic compounds as inhibitors of viral replication” (Intermune, Inc., priority 2003, dated 2009)

Legend:
NS3-NS4A protease = target: T1, NS3-NS4A protease (Hepatitis C virus genotype 1a, UniProt P27958); test: NS3-NS4A protease assay (NS3 inhibition assay, RETS1 substrate), Section B; format: biochemical; conditions: read-out: NS3-NS4A IC50
T1 construct: Recombinant E. coli or Baculovirus full-length NS3 was diluted to 3.33 μM with assay buffer; made in house; host or cells: E. coli or baculovirus (BV) system
Summary of the method: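 Kinetic fluorescence read (335 nm excitation, 495 nm emission, 30 min) of RETS1 cleavage by NS3/NS4A-2 complex, 2 nM E. coli or 3 nM baculovirus NS3, after 10 min room-temperature compound pre-incubation. Four-parameter-fit IC50s converted to Ki by Cheng–Prusoff, Ki=IC50/(1+[S]/Km).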

[1] = system: HCV sub-genomic replicon, GS4.3; test: Quantitation by ELISA of NPTII in the HCV sub-genomic replicon, GS4.3, Section B; format: cell-based; conditions: Hepatitis C virus; GS4.3 cells, 72 h incubation; read-out: Replicon EC50
Summary of the method: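 NPTII marker protein in lysates was quantified by ELISA read at 450 nm after 72 h inhibitor exposure (3-fold series, final DMSO 1%, G418-free medium) of HuH-7 cells stably harbouring the subgenomic HCV replicon. Values relative to DMSO-treated controls; 4-parameter curves gave EC50.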

NS3-NS4 protease = target: T2, NS3-NS4 protease (Hepatitis C virus genotype 1a, UniProt P27958); test: NS3-NS4 protease assay / NS3 inhibition assay, Section D; format: biochemical
T2 construct: Recombinant E. coli or Baculovirus full-length NS3 was diluted to 3.33 μM with assay buffer; made in house; host or cells: E. coli or baculovirus (BV) system
Description: NS3-NS4 Protease Assay NS3 complex formation with NS4A-2.
Recombinant E. coli or Baculovirus full-length NS3 was diluted to 3.33 μM with assay buffer and transferred material to an eppendorf tube and place in water bath in 4° C. refrigerator. The appropriate amount of NS4A-2 to 8.3 mM in assay buffer was added to equal the volume of NS3 in step 2.1.1 (conversion factor −3.8 mg/272 μL assay buffer). The material was transferred to an eppendorf tube and place in water bath in 4° C. refrigerator.
After equilibration to 4° C., equal volumes of NS3 and NS4A-2 solutions were combined in an eppendorf tube, mix gently with a manual pipettor, and incubate mixture for 15 minutes in the 4° C. water bath. Final concentrations in the mixture are 1.67 μM NS3, 4.15 mM NS4A-2 (2485-fold molar excess NS4A-2).
After 15 minutes at 4° C., the NS3/NS4A-2 eppendorf tube was removed and placed in a room temperature water bath for 10 minutes. NS3/NS4A-2 was alliquoted at appropriate volumes and store at −80° C. (E. coli NS3 run at 2 nM in assay, aliquot at 25 μL. BV NS3 run at 3 nM in assay, aliquot at 30 μL).
Sample compounds were dissolved to 10 mM in DMSO then diluted to 2.5 mM (1:4) in DMSO.
The E. coli. NS3/NS4A-2 was diluted to 4 nM NS3 (1:417.5 of 1.67 μM stock−18 μL 1.67 μM stock+7497 μL assay buffer).
The BV NS3/NS4A-2 was diluted to 6 nM NS3 (1:278.3 of 1.67 μM stock−24 μL 1.67 μM stock+6655 μL assay buffer).
Using the manual multichannel pipettor, careful not to introduce bubbles into the plate, add 50 μL assay buffer to wells A01-H01 of a black Costar 96-well polypropylene storage plate.
Using the manual multichannel pipettor, careful not to introduce bubbles into the plate, add 50 μL of diluted NS3/NS4A-2 from step 2.2.6 to wells A02-H12 of plate in step 2.2.7.
Using the manual multichannel pipettor, careful not to introduce bubbles into the plate, transfer 25 μL of the wells in drug dilution plate in step 2.2.5 to corresponding wells in assay plate in step 2.2.8. Change tips on multichannel pipettor for each row of compounds transferred.
Using the manual multichannel pipettor, careful not to introduce bubbles into the plate, mix the wells from the assay plate in step 2.2.9 by aspirating and dispensing 35 μL of the 75 μL in each well five times. Change tips on multichannel pipettor for each row of wells mixed.
Cover plate with a polystyrene plate lid and pre-incubate the plate from step 2.2.10 containing NS3 protease and sample compounds 10 minutes at room temperature.
While plate from step 2.2.11 is pre-incubating, dilute RETS1 substrate in a 15 mL polypropylene centrifuge tube.
Dilute RETS1 substrate to 8 μM (1:80.75 of 646 μM stock−65 μL 646 μM stock+5184 μL assay buffer).
After the plate in step is done pre-incubating, and using the manual multichannel, add 25 μL of substrate to all wells on the plate. Quickly mix the plate as in step 2.2.10, mixing 65 μL of the 100 μL in the wells.
Read the plate in kinetic mode on the Molecular Devices SpectraMax Gemini XS plate reader. Reader settings: Read time: 30 minutes, Interval: 36 seconds, Reads: 51, Excitation k: 335 nm, Emission k: 495 nm, cutoff: 475 nm, Automix: off, Calibrate: once, PMT: high, Reads/well: 6, Vmax pts: 21 or 28/51 depending on length of linearity of reaction.
IC50s are determined using a four parameter curve fit equation, and converted to Ki's using the following Km's:
where Ki=IC50/(1+[S]/Km))

T1 sequence (P27958 1027-1657): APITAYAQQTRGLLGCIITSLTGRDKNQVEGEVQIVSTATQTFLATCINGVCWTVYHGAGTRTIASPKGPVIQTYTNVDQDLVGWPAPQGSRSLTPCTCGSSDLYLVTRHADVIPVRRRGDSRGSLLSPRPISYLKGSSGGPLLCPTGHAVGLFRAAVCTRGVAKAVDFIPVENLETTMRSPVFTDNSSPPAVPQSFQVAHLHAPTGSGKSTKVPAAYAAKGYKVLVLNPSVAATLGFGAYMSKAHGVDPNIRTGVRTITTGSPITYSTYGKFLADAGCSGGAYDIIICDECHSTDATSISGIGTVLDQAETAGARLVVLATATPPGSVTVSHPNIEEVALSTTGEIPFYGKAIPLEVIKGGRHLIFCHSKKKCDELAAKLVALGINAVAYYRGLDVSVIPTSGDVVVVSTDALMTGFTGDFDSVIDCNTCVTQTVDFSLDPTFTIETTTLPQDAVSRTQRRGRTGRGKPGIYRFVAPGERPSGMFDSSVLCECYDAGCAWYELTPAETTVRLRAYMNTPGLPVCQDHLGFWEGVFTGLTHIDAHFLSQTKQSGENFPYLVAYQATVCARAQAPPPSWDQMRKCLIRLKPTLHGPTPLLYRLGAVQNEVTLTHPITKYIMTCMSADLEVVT
T2 sequence (P27958 1027-1657): as above

Row | IC50 (NS3-NS4 protease) [nM] | Structure (SMILES) | IC50 (NS3-NS4A protease) [nM] | EC50 [1] [nM]
1 | – | CC(C)(C)OC(=O)N[C@H]1CCCCC/C=C\[C@@H]2C[C@@]2(C(=O)NS(=O)(=O)c2ccc(C(=O)O)cc2)NC(=O)[C@@H]2C[C@@H](OC(=O)N3Cc4ccccc4C3)CN2C1=O [AR00365387, (1S,4R,6S,14S,18R)-1,3-Dihydro-isoindole-2-carboxylic acid 14-tert-butoxycarbonylamino-4-(4-carboxy-benzenesulfonylaminocarbonyl)-2,15-dioxo-3,16-diaza-tricyclo[14.3.0.0^4,6]nonadec-7-en-18-yl ester] | < 100 | < 100
2 | – | CC(C)(C)OC(=O)N[C@H]1CCCCC/C=C\[C@@H]2C[C@@]2(C(=O)NS(=O)(=O)c2cc(C(=O)O)c(Cl)cc2F)NC(=O)[C@@H]2C[C@@H](OC(=O)N3Cc4ccccc4C3)CN2C1=O [AR00365426, (1S,4R,6S,14S,18R)-1,3-Dihydro-isoindole-2-carboxylic acid 14-tert-butoxycarbonylamino-4-(5-carboxy-4-chloro-2-fluoro-benzenesulfonylaminocarbonyl)-2,15-dioxo-3,16-diaza-tricyclo[14.3.0.0^4,6]nonadec-7-en-18-yl ester] | < 100 | < 10000
3 | – | CC(C)(C)OC(=O)N[C@H]1CCCCC/C=C\[C@@H]2C[C@@]2(C(=O)NS(=O)(=O)c2cccs2)NC(=O)[C@@H]2C[C@@H](OC(=O)N3Cc4ccccc4C3)CN2C1=O [AR00365427, (1S,4R,6S,14S,18R)-1,3-Dihydro-isoindole-2-carboxylic acid 14-tert-butoxycarbonylamino-2,15-dioxo-4-(thiophene-2-sulfonylaminocarbonyl)-3,16-diaza-tricyclo[14.3.0.0^4,6]nonadec-7-en-18-yl ester] | < 100 | < 100
4 | – | CC(C)(C)OC(=O)N[C@H]1CCCCC/C=C\[C@@H]2C[C@@]2(C(=O)NS(=O)(=O)c2ccc(C(=O)O)cc2)NC(=O)[C@@H]2C[C@@H](OC(=O)N3Cc4cccc(F)c4C3)CN2C1=O [AR00365438, (1S,4R,6S,14S,18R)-4-Fluoro-1,3-dihydro-isoindole-2-carboxylic acid 14-tert-butoxycarbonylamino-4-(4-carboxy-benzenesulfonylaminocarbonyl)-2,15-dioxo-3,16-diaza-tricyclo[14.3.0.0^4,6]nonadec-7-en-18-yl ester] | < 100 | < 100
5 | – | CN(C)c1ccc(S(=O)(=O)NC(=O)[C@@]23C[C@H]2/C=C\CCCCC[C@H](NC(=O)OC(C)(C)C)C(=O)N2C[C@H](OC(=O)N4Cc5ccccc5C4)C[C@H]2C(=O)N3)cc1 [AR00365572, (1S,4R,6S,14S,18R)-1,3-Dihydro-isoindole-2-carboxylic acid 14-tert-butoxycarbonylamino-4-(4-dimethylamino-benzenesulfonylaminocarbonyl)-2,15-dioxo-3,16-diaza-tricyclo[14.3.0.0^4,6]nonadec-7-en-18-yl ester] | < 100 | < 100
6 | < 100 | CC(C)(C)OC(=O)N[C@H]1CCCCC/C=C\[C@@H]2C[C@@]2(C(=O)NS(=O)(=O)C2CC2)NC(=O)[C@@H]2C[C@@H](NC(=O)c3sc4ccccc4c3Cl)CN2C1=O [Example 1] | – | –
7 | < 100 | CC(C)(C)OC(=O)N[C@H]1CCCCC/C=C\[C@@H]2C[C@@]2(C(=O)NS(=O)(=O)C2CC2)NC(=O)[C@@H]2C[C@@H](NC(=O)c3ccccc3)CN2C1=O [Example 2] | – | –
8 | < 100 | CCc1ccc(C(=O)N[C@@H]2C[C@H]3C(=O)N[C@]4(C(=O)NS(=O)(=O)C5CC5)C[C@H]4/C=C\CCCCC[C@H](NC(=O)OC(C)(C)C)C(=O)N3C2)cc1 [Example 3] | – | –
9 | < 100 | CC(C)(C)OC(=O)N[C@H]1CCCCC/C=C\[C@@H]2C[C@@]2(C(=O)NS(=O)(=O)C2CC2)NC(=O)[C@@H]2C[C@@H](NC(=O)c3ccc(Cl)cc3)CN2C1=O [Example 4] | – | –
10 | < 100 | CC(C)(C)OC(=O)N[C@H]1CCCCC/C=C\[C@@H]2C[C@@]2(C(=O)NS(=O)(=O)C2CC2)NC(=O)[C@@H]2C[C@@H](NC(=O)c3c(Cl)cc(Cl)cc3Cl)CN2C1=O [Example 5] | – | –
11 | < 100 | COc1ccc(C(=O)N[C@@H]2C[C@H]3C(=O)N[C@]4(C(=O)NS(=O)(=O)C5CC5)C[C@H]4/C=C\CCCCC[C@H](NC(=O)OC(C)(C)C)C(=O)N3C2)cc1 [Example 6] | – | –
12 | < 100 | COc1cccc(C(=O)N[C@@H]2C[C@H]3C(=O)N[C@]4(C(=O)NS(=O)(=O)C5CC5)C[C@H]4/C=C\CCCCC[C@H](NC(=O)OC(C)(C)C)C(=O)N3C2)c1 [Example 7] | – | –
13 | < 100 | COc1ccc(C(=O)N[C@@H]2C[C@H]3C(=O)N[C@]4(C(=O)NS(=O)(=O)C5CC5)C[C@H]4/C=C\CCCCC[C@H](NC(=O)OC(C)(C)C)C(=O)N3C2)cc1C(F)(F)F [Example 8] | – | –
14 | < 100 | CC(C)(C)OC(=O)N[C@H]1CCCCC/C=C\[C@@H]2C[C@@]2(C(=O)NS(=O)(=O)C2CC2)NC(=O)[C@@H]2C[C@@H](NC(=O)c3ccc(C#N)cc3)CN2C1=O [Example 9] | – | –
15 | < 100 | CC(C)(C)OC(=O)N[C@H]1CCCCC/C=C\[C@@H]2C[C@@]2(C(=O)NS(=O)(=O)C2CC2)NC(=O)[C@@H]2C[C@@H](NC(=O)c3cccc(C#N)c3)CN2C1=O [Example 10] | – | –
16 | < 100 | CN(C)c1ccc(C(=O)N[C@@H]2C[C@H]3C(=O)N[C@]4(C(=O)NS(=O)(=O)C5CC5)C[C@H]4/C=C\CCCCC[C@H](NC(=O)OC(C)(C)C)C(=O)N3C2)cc1 [Example 11] | – | –
17 | < 100 | CC(C)Nc1nc(C(=O)N[C@@H]2C[C@H]3C(=O)N[C@]4(C(=O)NS(=O)(=O)C5CC5)C[C@H]4/C=C\CCCCC[C@H](NC(=O)OC(C)(C)C)C(=O)N3C2)cs1 [Example 12] | – | –
18 | < 100 | CN(C)c1ccc(C(=O)N[C@@H]2C[C@H]3C(=O)N[C@]4(C(=O)NS(=O)(=O)C5CC5)C[C@H]4/C=C\CCCCC[C@H](NC(=O)OC(C)(C)C)C(=O)N3C2)cn1 [Example 13] | – | –
19 | < 100 | CC(C)(C)OC(=O)N[C@H]1CCCCC/C=C\[C@@H]2C[C@@]2(C(=O)NS(=O)(=O)C2CC2)NC(=O)[C@@H]2C[C@@H](NC(=O)c3ccc(N4CCOCC4)nc3)CN2C1=O [Example 14] | – | –
20 | < 100 | CC(C)(C)OC(=O)N[C@H]1CCCCC/C=C\[C@@H]2C[C@@]2(C(=O)NS(=O)(=O)C2CC2)NC(=O)[C@@H]2C[C@@H](NC(=O)c3ccc(F)c(F)c3)CN2C1=O [Example 15] | – | –
21 | < 100 | CC(C)(C)OC(=O)N[C@H]1CCCCC/C=C\[C@@H]2C[C@@]2(C(=O)NS(=O)(=O)C2CC2)NC(=O)[C@@H]2C[C@@H](NC(=O)c3ccc(Cl)c(Cl)c3)CN2C1=O [Example 16] | – | –
22 | < 100 | CC(C)(C)OC(=O)N[C@H]1CCCCC/C=C\[C@@H]2C[C@@]2(C(=O)NS(=O)(=O)C2CC2)NC(=O)[C@@H]2C[C@@H](NC(=O)c3ccc(S(N)(=O)=O)cc3)CN2C1=O [Example 17] | – | –
23 | < 100 | CC(C)(C)OC(=O)N[C@H]1CCCCC/C=C\[C@@H]2C[C@@]2(C(=O)NS(=O)(=O)C2CC2)NC(=O)[C@@H]2C[C@@H](NC(=O)c3ccc(C(N)=O)cc3)CN2C1=O [Example 18] | – | –
